Assay results taken from US20210228560A1 (Centogene IP GmbH, priority 2011, published 2021).
Positions count from the first letter of the chain named. “And” between values parts separate entries of the source, which are not always exact repeats. Identical values can stand only once. Like-named read-outs stand apart in the source and are kept apart here. Blank lines part the entries; values can stand above or below the compound they belong to.

Legend:
hexosaminidase A = target: T1, hexosaminidase A (Homo sapiens, UniProt P06865+P07686); conditions: cited from earlier work
T1 sequence (P06865 89-529): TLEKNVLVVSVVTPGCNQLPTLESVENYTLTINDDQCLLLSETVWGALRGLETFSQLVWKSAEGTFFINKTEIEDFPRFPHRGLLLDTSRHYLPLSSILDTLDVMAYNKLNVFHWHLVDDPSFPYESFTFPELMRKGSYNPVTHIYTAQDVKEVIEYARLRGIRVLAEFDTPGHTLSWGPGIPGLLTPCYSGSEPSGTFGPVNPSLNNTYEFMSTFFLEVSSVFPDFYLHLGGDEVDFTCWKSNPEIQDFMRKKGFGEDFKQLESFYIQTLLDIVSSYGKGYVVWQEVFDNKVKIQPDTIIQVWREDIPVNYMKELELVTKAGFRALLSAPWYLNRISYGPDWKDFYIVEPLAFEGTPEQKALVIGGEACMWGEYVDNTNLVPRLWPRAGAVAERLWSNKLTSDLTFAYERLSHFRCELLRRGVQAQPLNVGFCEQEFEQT
T1 sequence (P07686 122-556): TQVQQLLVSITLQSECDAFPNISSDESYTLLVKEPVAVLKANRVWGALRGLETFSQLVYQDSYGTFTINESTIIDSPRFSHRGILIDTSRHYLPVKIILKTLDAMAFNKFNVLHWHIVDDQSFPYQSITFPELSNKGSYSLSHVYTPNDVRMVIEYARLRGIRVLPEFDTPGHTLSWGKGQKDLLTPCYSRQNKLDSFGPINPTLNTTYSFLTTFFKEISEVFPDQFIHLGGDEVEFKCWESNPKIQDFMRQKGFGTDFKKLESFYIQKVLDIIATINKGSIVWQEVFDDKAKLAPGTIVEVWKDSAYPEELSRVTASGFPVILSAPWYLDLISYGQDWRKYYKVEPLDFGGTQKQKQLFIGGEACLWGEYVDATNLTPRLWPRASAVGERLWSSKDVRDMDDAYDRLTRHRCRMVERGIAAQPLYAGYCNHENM

GLA[A156V] = target: T2, GLA[A156V] (Homo sapiens, UniProt P06280, A156V); type: cell-based; conditions: for mutant enzyme activity in combination with DGJ: concentration of SF-54B and SF-55C 10 μM and 40 μM, respectively; for mutant enzyme activity in combination with DGJ, concentration series: increasing concentrations of compound with DGJ, FIG. 10
T2 sequence (P06280 32-429 A156V): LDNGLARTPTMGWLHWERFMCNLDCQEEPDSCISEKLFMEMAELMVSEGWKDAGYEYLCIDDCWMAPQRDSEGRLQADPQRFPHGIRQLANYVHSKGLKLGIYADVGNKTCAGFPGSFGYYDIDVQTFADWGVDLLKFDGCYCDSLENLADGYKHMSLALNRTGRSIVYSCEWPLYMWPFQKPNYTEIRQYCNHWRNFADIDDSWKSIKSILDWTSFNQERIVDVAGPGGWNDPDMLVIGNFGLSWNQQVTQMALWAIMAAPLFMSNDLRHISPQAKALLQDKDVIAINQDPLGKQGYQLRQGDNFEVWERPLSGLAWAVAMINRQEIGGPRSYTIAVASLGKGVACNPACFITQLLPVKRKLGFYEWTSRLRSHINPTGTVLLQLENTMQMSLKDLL

mutant GLA [1] = conditions: cell-free; cited from earlier work
mutant GLA [2] = conditions: washout two hours prior to assay; cited from earlier work
GLA[R301G] = target: T3, GLA[R301G] (Homo sapiens, UniProt P06280, R301G); type: cell-based
T3 sequence (P06280 32-429 R301G): T2 sequence (P06280 32-429 A156V) with V125A, R270G

Alpha-Gal A = conditions: grown in the presence of DGJ, cited from earlier work
GLA = conditions: patient lymphoblasts; cited from earlier work
[3] = cited from earlier work
[4] = target: acid α-glucosidase mutants (Homo sapiens, UniProt P10253, Y455F); type: cell-based; conditions: 20 μM DNJ + 40 μM compound; FIG. 11
Chain of acid α-glucosidase mutants (Homo sapiens, UniProt P10253, Y455F) (P10253 70-952 Y455F): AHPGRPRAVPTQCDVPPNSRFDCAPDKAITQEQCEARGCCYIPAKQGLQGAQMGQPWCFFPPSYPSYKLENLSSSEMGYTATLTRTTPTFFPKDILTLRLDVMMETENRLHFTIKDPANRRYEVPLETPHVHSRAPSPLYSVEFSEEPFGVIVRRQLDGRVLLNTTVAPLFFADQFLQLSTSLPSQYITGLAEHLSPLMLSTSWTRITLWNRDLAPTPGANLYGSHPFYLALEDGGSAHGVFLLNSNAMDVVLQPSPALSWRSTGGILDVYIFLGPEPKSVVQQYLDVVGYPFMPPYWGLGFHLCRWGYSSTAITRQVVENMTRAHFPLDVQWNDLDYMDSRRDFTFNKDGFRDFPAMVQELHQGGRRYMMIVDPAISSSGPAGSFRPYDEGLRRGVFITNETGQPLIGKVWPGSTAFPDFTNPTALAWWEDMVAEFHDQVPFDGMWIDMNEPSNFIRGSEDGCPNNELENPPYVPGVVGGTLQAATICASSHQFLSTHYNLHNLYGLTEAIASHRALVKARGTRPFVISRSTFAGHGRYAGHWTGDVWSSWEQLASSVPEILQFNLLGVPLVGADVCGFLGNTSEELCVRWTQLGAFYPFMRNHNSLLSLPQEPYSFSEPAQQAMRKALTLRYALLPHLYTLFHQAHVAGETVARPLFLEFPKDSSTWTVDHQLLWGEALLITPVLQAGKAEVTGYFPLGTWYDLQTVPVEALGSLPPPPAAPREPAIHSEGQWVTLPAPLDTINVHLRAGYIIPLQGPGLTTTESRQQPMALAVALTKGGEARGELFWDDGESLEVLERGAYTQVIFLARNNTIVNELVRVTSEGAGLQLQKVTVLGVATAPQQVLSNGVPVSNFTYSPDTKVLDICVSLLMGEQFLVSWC
Experimental: (§1) A bacterial clone containing the full length cDNA of […] (IRATp970C0971D, aligned to accession no. NM_000152.3, GeneBank) was received form ImaGenes GmbH, Berlin, Germany. Amplification was performed with the primers 5′-TAGGAGCTGTCCAGGCCATC-3′ (SEQ ID NO:3) and 5′-GAGAGACTAACACACTCCGC-3′ (SEQ ID NO:4). The PCR was carried out using iProof DNA Polymerase (BioRad). The cDNA was subcloned into pCRII TA TOPO vector (Invitrogen). Prior to ligation, the cDNA insert was incubated with Taq polymerase (Qiagen) to add a poly (A) overhang at the 3′-end for TA-cloning. For expression, the GAA cDNA was ligated into target vector pcDNA3.1/V5-His6 (Invitrogen) using sticky end ligation utilizing unique restriction sites (HindIII, XhoI) offered by both vectors multiple cloning sites.
(§2) Sample preparation was carried out analogously to the α-galactosidase A recordings. As substrate, a 1.3 mg 4-Methylumbelliferyl-α-D-Glukopyranoside/ml solution (in sodium acetate buffer, pH 4.0) was used and 5 μg sample/reaction were added. The reaction was incubated for 60 minutes at 37° C. and stopped with 1M Glycine-NaOH, pH 10.5.

[5] = tested on: GLA mutants (alpha-galactosidase A); conditions: for enzyme activity of GLA mutants, compound in combination with DGJ: 40 μM compound + 20 μM DGJ, compared to DGJ alone, DGJ-responsive mutants, FIG. 3, FIG. 6
[6] = Plasma concentration and absorption (literature); type: in vivo, human; conditions: 32 mg tablet; estimate
[7] = tested on: acid α-glucosidase mutants; type: cell-based; conditions: 20 μM NB-DNJ alone; FIG. 7A
Experimental: as §1, §2

[8] = target: acid α-glucosidase mutants (Homo sapiens, UniProt P10253, L552P); type: cell-based; conditions: 20 μM DNJ + 40 μM compound; FIG. 11B
Chain of acid α-glucosidase mutants (Homo sapiens, UniProt P10253, L552P) (P10253 70-952 L552P): as the sequence (P10253 70-952 Y455F) above, with F386Y, L483P counted along it
Experimental: as §1, §2

[9] = value with superscript 1 (mark not explained)
[10] = value with superscript 2 (mark not explained)

Compound: CC(=O)NC1CN2CC[C@H](O)C2[C@@H](O)C1O (stereo partly drawn) [6-Acetamido-6-deoxycastanospermine]
- IC50 (hexosaminidase A; [9]): 500 nM

Compound: CC(=O)NC1CNC(CO)[C@@H](O)C1O (stereo partly drawn) [2-Acetamido-1,2-dideoxynojirimycin]
- Ki (hexosaminidase A; [10]): 700 nM

Compound: OC[C@H]1NC[C@H](O)[C@@H](O)[C@H]1O [DGJ, 1-Deoxygalactonojirimycin]
- increase of GLA[A156V] activity (GLA[A156V]; 20 μM DGJ alone, no Ambroxol, untreated = 1.0, FIG. 5A): 3.8 fold and 4 fold
- concentration of DGJ reaching the same effect as 20 μM DGJ alone (GLA[A156V]; with 40 μM Ambroxol in addition, GLA[A156V]): 8.9 µM
- dosages already inhibiting (mutant GLA [1]): below 1 μM
- concentration tolerated without any detectable inhibition of the tested mutant enzyme (mutant GLA [2]): up to 1 mM
- increase of GLA[R301G] activity (GLA[R301G]; 20 μM DGJ without Ambroxol, untreated = 1.0, FIG. 5B): 2.8 fold
- concentration of DGJ sufficient to reach the level of 20 μM DGJ alone (GLA[R301G]; in combination with 40 μM Ambroxol, mutant not named in the block): 4.72 µM
- share of the DGJ concentration needed compared to DGJ alone (GLA[R301G]; in combination with 40 μM Ambroxol, same increase of protein activity): ~25%
- Alpha-Gal A activity (Alpha-Gal A; other mutations): unaffected
- Alpha-Gal A activity (Alpha-Gal A; several mutations): more than 50 % of normal
- concentration beyond which GLA activity decreases (GLA): > 100 µM
- clinically achievable concentration ([3]; clinical trials, Wu et al.): 10 µM

Compound: CC(=O)N[C@H]1C(O)O[C@H](CO)[C@H](O)[C@@H]1O (stereo partly drawn) [N-Acetyl-galactosamine (GalNAc), N-Acetyl-galactosamine]
- Ki (hexosaminidase A; [9]): 1.9 nM

Compound: CN(Cc1cc(Br)cc(Br)c1N)C1CCCCC1 [Bromhexine, 2,4-dibromo-6-{[cyclohexyl(methyl)amino]methyl}aniline]
- increase in the activity of acid α-glucosidase mutant Y455F, compound with DNJ compared to DNJ alone [4]: comparable
- difference of protein activity between Bromhexine and DGJ and Ambroxol and DGJ ([5]; 40 μM Bromhexine or Ambroxol + 20 μM DGJ, FIG. 6): no significant difference
- alpha-Galactosidase A activity of mutant GLAs, bromhexine alone ([5]; 40 μM Bromhexine without DGJ, FIG. 6): no effect
- enzyme activity of GLA mutants, compound in combination with DGJ [5]: significantly increased
- enzyme activity of GLA mutants, compound in combination with DGJ ([5]; listed as bromhexine): increased
- intestinal absorption ([3]; 32 mg tablet (77.6 μmol)): 22-27%
- concentration of bromhexine ([3]; Bechgaard et al.): 80 nM
- resulting concentration referring to blood volume after first pass loss [6]: approximately 0.7 μM

Compound: N-butyl-DNJ [NB-DNJ]
- enzyme activity of mutations Y455F, P545L and L552P, NB-DNJ [7]: significantly increased

Compound: CC(=O)NC1C(O)NC(CO)[C@@H](O)C1O (stereo partly drawn) [2-Acetamido-2-deoxynojirimycin (ADNJ), 2-Acetamido-2-deoxynojirimycin]
- Ki (hexosaminidase A; [10]): 5 nM

Second part, the compound after the results:

- mutant enzyme activity in combination with DGJ (GLA[A156V]; 20 μM DGJ, FIG. 9): high increase
- mutant enzyme activity in combination with DGJ, concentration series (GLA[A156V]): high increase
- increase in the activity of acid α-glucosidase mutant Y455F, compound with DNJ compared to DNJ alone [4]: comparable
Compound: CN(Cc1cc(C#N)cc(Br)c1N)C1CCCCC1 [SF-55C]

- mutant enzyme activity in combination with DGJ, concentration series (GLA[A156V]): high increase
- increase in the activity of acid α-glucosidase mutant Y455F, compound with DNJ compared to DNJ alone [4]: higher
- increase in the activity of mutant L552P, compound with DNJ compared to DNJ only [8]: higher
Compound: CC(=O)Nc1c(Br)cc(Br)cc1CN(C)C1CCCCC1 [SF-150B]

- concentration in combination with DGJ giving an increase as high as Ambroxol at up to 10 μM with DGJ (GLA[A156V]; 20 μM DGJ, FIG. 9): 1 µM
Compound: Cc1cc(C)cc(-c2cc(CN(C)C3CCCCC3)c(N)c(-c3cc(C)cc(C)c3)c2)c1 [SF-80]

- mutant enzyme activity in combination with DGJ (GLA[A156V]; 20 μM DGJ, FIG. 9): high increase
- mutant enzyme activity in combination with DGJ, concentration series (GLA[A156V]): high increase
- increase in the activity of acid α-glucosidase mutant Y455F, compound with DNJ compared to DNJ alone [4]: comparable
Compound: CN(Cc1cc(C#N)cc(C#N)c1N)C1CCCCC1 [SF-54B]

- mutant enzyme activity in combination with DGJ, concentration series (GLA[A156V]): high increase
- increase in the activity of acid α-glucosidase mutant Y455F, compound with DNJ compared to DNJ alone [4]: higher
- increase in the activity of mutant L552P, compound with DNJ compared to DNJ only [8]: higher
Compound: CC(=O)OC1CCC(NCc2cc(Br)cc(Br)c2N)CC1 (stereo not drawn) [SF-153B]

- increase in the activity of acid α-glucosidase mutant Y455F, compound with DNJ compared to DNJ alone [4]: comparable
- increase in the activity of mutant L552P, compound with DNJ compared to DNJ only [8]: higher
Compound: N#Cc1cc(C#N)c(N)c(CNC2CCC(O)CC2)c1 (stereo not drawn) [SF-124B]
